Test results reported in paper PMC4824854, “Predictions of Cleavability of Calpain Proteolysis by Quantitative Structure-Activity Relationship Analysis Using Newly Determined Cleavage Sites and Catalytic Efficiencies of an Oligopeptide Array” (Molecular & Cellular Proteomics : MCP, 2016).
“Also recorded” adds a separate entry of the source.

T1: C1 (Merck Millipore #208712) (Sus scrofa, UniProt P35750)
T1 construct: purchased Merck Millipore 208712
T1 sequence (P35750 1-714): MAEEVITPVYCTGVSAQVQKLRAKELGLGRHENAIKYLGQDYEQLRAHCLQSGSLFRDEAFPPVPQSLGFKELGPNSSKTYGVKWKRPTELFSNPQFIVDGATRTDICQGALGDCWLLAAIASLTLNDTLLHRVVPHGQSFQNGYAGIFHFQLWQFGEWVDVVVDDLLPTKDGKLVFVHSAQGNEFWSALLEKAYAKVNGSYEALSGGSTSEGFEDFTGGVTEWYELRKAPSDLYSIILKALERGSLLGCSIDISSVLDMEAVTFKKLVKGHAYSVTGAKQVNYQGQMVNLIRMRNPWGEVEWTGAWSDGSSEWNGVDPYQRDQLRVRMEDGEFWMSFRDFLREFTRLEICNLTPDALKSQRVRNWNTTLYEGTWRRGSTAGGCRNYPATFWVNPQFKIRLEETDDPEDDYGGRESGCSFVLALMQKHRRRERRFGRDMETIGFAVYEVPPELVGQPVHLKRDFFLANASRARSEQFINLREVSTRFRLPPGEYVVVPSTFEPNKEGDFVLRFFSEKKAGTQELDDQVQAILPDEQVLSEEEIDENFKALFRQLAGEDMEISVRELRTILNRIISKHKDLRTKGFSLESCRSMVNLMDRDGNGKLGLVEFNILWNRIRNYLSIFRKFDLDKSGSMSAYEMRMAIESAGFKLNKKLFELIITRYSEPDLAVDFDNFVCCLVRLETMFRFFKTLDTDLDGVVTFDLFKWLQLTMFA
T1 sequence (P04574 1-266 partner): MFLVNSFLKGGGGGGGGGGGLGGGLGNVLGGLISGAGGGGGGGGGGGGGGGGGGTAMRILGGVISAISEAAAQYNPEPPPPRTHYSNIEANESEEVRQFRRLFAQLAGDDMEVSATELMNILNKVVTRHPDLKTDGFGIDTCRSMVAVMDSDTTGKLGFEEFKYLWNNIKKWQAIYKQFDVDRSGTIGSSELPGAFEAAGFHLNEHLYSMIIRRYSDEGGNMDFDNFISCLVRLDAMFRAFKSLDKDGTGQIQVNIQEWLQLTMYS

B1: horse myoglobin: horse myoglobin (Sigma-Aldrich, M0630; P68082) (protein, UniProt P68082 2-154, looked up)
Myoglobin: GLSDGEWQQVLNVWGKVEADIAGHGQEVLIRLFTGHPETLEKFDKFKHLKTEAEMKASEDLKKHGTVVLTALGGILKKKGHHEAELKPLAQSHATKHKIPIKYLEFISDAIIHVLHSKHPGDFGADAQGAMTKALELFRNDIAAKYKELGFQG

Columns and labels:
[1] = tested on: calpains; details: cited from earlier work
Excerpt: This activity is mainly achieved by an ∼10^4-fold increase in the kcat without a significant change in the Km ([39]), by an unknown mechanism. Although this amidase-like calpain activity may be involved in as-yet-unknown physiological functions, there has been no further report on it.

[2] = target: T1, C1 (Merck Millipore #208712); experiment: Cleavage sites in whole proteins by N-terminal sequencing and MS/MS; assay type: biochemical; details: C1 0.9 pmol, 100 mM Tris-HCl pH 7.5, 5 mM CaCl2, 30 °C, 20 min; peptide sequencing and LC-MS/MS
Method: Human heart troponin T2 (Merck 648484–100UGA, ca. 30 pmol) and horse myoglobin (Sigma-Aldrich, M0630, ca. 60 pmol) were digested with C1 (Merck Millipore #208712, 0.9 pmol) in 50 μl of 100 mM Tris-HCl (pH 7.5), 1 mM DTT, and 5 mM CaCl2 at 30 °C for 20 min. The digested samples were directly separated by SDS-PAGE, and the proteolyzed fragments were then blotted onto a PVDF membrane and subjected to peptide sequencing analysis (AproScience Inc., Tokushima, Japan). For sequence analysis by MS, the same digestion reactions were performed, terminated by adding a 3-fold volume of 7% TCA followed by incubation on ice for 30 min, spun (20,000 × g, 2 °C, 10 min), and the supernatant was collected. An aliquot of the soluble fraction was desalted and concentrated to a few μl using Zip-Tip C-18, and analyzed by Sciex 5600^+ with the Eksigent nanoLC system. The samples were analyzed in triplicate, the data were merged, and the peptide sequences were identified using ProteinPilot (Ver. 4.5) and Swiss-Prot DB (2015_08; 549,008 sequences; 195,692,017 aars) using the default parameters.

Molecule | kcat/Km for hydrolysis of the NH2 group at the C terminus (amidase-like activity) [1] | calpain cleavage sites detected in the whole protein [2]
RPKPQQFFGLM-NH2 [substance P] | 10^6 M^−1s^−1 | 
B1 |  | Lys^51/Thr^52; also recorded: Gly^152/Phe^153
